Measured values: publication PMC7414031, “Correlation between hemolytic activity, cytotoxicity and systemic in vivo toxicity of synthetic antimicrobial peptides” (Scientific Reports, 2020)
Values after ≈ are worked out from the molar mass of the structure shown. Square brackets hold non-standard residues; d marks the D form. Peptide text beside a SMILES is read from it. N(1-naphthylmethyl)Gly = O=C(O)CNCc1cccc2ccccc12; Nphe = O=C(O)CNCc1ccccc1; NBuGly = CCCCNCC(=O)O

How the values were obtained:
human erythrocytes [1] = experiment: in vitro; format: cell-based; conditions: for IC10 haemolysis: human erythrocytes; for IC50: red cells of human
Procedure, shortened: (§1)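 Washed heparinized erythrocytes (~5 × 10^8 RBC/mL in PBS) incubated 1 h at 37 °C with peptides in serial 1:1 dilutions (150 to 1.2 µM final). Haemoglobin release read at 405 nm in supernatant; % haemolysis relative to 1% Triton X-100 (100%) and PBS diluent (0%).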

in vitro [2] = format: cell-based, human; conditions: human
Procedure, shortened: as §1

[3] = tested on: Staphylococcus pseudintermedius; conditions: cited from earlier work; for S.p. MIC: Staphylococcus pseudintermedius, Table S5, in µM
physchem = conditions: PBS
Procedure: (§3) To further address the actual correlation of the in vitro observations to an in vivo situation, three compounds were selected for animal studies. […] Peptides where chosen to include compounds with ranging antibacterial activity, residue composition, hydrophobicity and in vitro mammalian toxicity, deliberately excluding compounds too hydrophobic and too toxic (50% > lysis at 150 µM in vitro against rats and human). […] All the compounds were tested at the same concentrations 0, 0.01 and 1.0 mg/kg rat.
(§4) The compounds were formulated in sterile PBS (tablets, Medicago, Sweden), sonicated and sterile filtered through a Millex-GV filter (0.22 µm pore size, Ø 13 mm, Merck) before use. […] Doses were 0 (vehicle control), 0.01 and 1.0 mg/kg rat).

canine erythrocytes = experiment: in vitro; format: cell-based, dog; conditions: for IC10 haemolysis: canine erythrocytes; for IC50: red cells of canine
Procedure, shortened: as §1

in vitro [4] = format: cell-based, dog; conditions: dog
Procedure, shortened: as §1

[5] = Dose-ranging intravenous toxicity study in rats; format: in vivo, rat (WistarHan); conditions: rat
Procedure: All animals were injected with a single dose of 0.5 mL (2 mL/kg body weight) and it was slowly administered over 2 min and 10 s. Shorter cationic tripeptides[4] and synthetic AMPs[72] have previously been evaluated employing the intravenous route. It was an interesting observation that the animals survived the systemic tail vein injection seemingly unaffected. This observation is in contrast to related synAMPs investigated as intravenous antibiotics which induced acute toxicity and paralysis at higher concentrations.

in vitro [6] = format: cell-based, rat (Sprague–Dawley); conditions: Sprague-Dawley, rat
Procedure, shortened: as §1

rat erythrocytes = experiment: in vitro; format: cell-based, rat (Sprague–Dawley); conditions: for IC10 haemolysis: rat erythrocytes; for IC50: red cells of rat
Procedure, shortened: as §1

HepG2 cells = format: cell-based, human; conditions: 1 h
Procedure: (§2) An immortalised human keratinocyte (HaCaT) cell line (Gift from David Gram Naym at Bispebjerg Hospital, Denmark), a human liver cancer cell line (HepG2; ATCC HB-8065) and a human epithelial cervical cancer cell line (HeLa; ATCC CCL-2) were cultured to ∼90% confluence after 21–25 h of growth under standard conditions (5% CO2 at 37 °C). Cells were cultured in Dulbecco’s Modified Eagle’s Medium supplemented with 10% (v/v) fetal bovine serum (FBS). All culture media were supplemented with penicillin (100 IU/mL) and streptomycin (100 μg/mL). All cell media and supplements were obtained from Sigma-Aldrich (St. Louis, MO, United States). The 96-well plates were supplied by Corning Costar (Sigma-Aldrich, Brøndby, Denmark). Cell viability assessment was performed on cell monolayers grown to ∼90% confluence in 96-well plates by using the MTS/PMS assay as previously described. Briefly, the adhered cells were washed with PBS solution (37 °C) (ThermoFisher Scientific, Roskilde) and exposed for 1 h at 37 °C to 100 μL of peptides dissolved in the medium also used for culturing of the cell line (at concentrations in the range 0–1,000 μg/mL). The cells were subsequently washed twice with 37 °C PBS and then 100 μL of an MTS/PMS solution in media, consisting of 240 μg/mL MTS (Promega, Madison, WI, United States) and 2.4 mg/mL PMS (Promega, Madison, WI, United States), was added to the cells, which then were incubated for 1 h at 37 °C protected from light. A plate reader (SpectraMax i3X; Molecular devices, San Jose, CA) was used to measure the absorbance at 492 nm. The relative viability was calculated by using 0.2% (w/v) sodium dodecyl sulfate (SDS) as the positive control, while cells exposed to medium without test compound were used as the negative control.

HeLa cells = format: cell-based, human; conditions: 1 h
Procedure: as §2

HaCaT cells = format: cell-based, human; conditions: 1 h
Procedure: as §2

Staphylococcus aureus = tested on: Staphylococcus aureus; set-up: method as in PMID 30842436; conditions: cited from earlier work
bovine erythrocytes = experiment: in vitro; format: cell-based; conditions: bovine erythrocytes
Procedure, shortened: as §1

in vitro [7] = format: cell-based, bovine; conditions: bovine
Procedure, shortened: as §1

Pseudomonas aeruginosa = tested on: Pseudomonas aeruginosa; set-up: method as in PMID 30842436; conditions: cited from earlier work
[8] = at in vivo dosing concentrations
Procedure: as §3, §4

human erythrocytes [9] = conditions: cited from earlier work

| SMILES | IC10 haemolysis (human erythrocytes [1]) | IC50 (human erythrocytes [1]) | hemolysis at 1 h, 150 µM (in vitro [2]) | S.p. MIC [3] | MIC against Staphylococcus pseudintermedius [3] | IC10 haemolysis (canine erythrocytes) | IC50 (canine erythrocytes) | hemolysis at 1 h, 150 µM (in vitro [4]) | hemolysis at 1 h, 150 µM (in vitro [6]) | IC10 haemolysis (rat erythrocytes) | IC50 (rat erythrocytes) | IC50 (HepG2 cells) | IC50 (HeLa cells) | IC50 (HaCaT cells) | MIC against Staphylococcus aureus (Staphylococcus aureus) | IC10 haemolysis (bovine erythrocytes) | hemolysis at 1 h, 150 µM (in vitro [7]) | MIC against Pseudomonas aeruginosa (Pseudomonas aeruginosa) | Solubility in PBS (in words) [8] | other results |
| --- | --- | --- | --- | --- | --- | --- | --- | --- | --- | --- | --- | --- | --- | --- | --- | --- | --- | --- | --- | --- |
| CC(C)C[C@@H](NC(=O)[C@H](CCCCN)NC(=O)[C@H](CCCCN)NC(=O)[C@@H](N)CCCCN)C(=O)N[C@H](Cc1cccc2ccccc12)C(=O)N[C@H](Cc1ccccc1)C(=O)N[C@H](Cc1cccc2ccccc12)C(N)=O [Compound 11, Lys-Lys-Lys-Leu-(1-Nal)Ala-Phe-(1-Nal)Ala] (HELM PEPTIDE1{K.K.K.[dL].[O=C([C@@H](Cc1cccc2ccccc12)N[*:1])[*:2]].[dF].[O=C([C@@H](Cc1cccc2ccccc12)N[*:1])[*:2]].[am]}$$$$V2.0) | 32.8 µM | > 150 µM | 33.3% | 1.9 µM | 2 µg/mL (≈ 1.89 µM) | 30.4 µM | > 150 µM | 40.7% | 11.3% | 128.2 µM | > 150 µM | 233 µM | 233 µM | 517 µM | 8 µg/mL (≈ 7.57 µM) | 89.2 µM | 17.4% | 8 µg/mL (≈ 7.57 µM) | required mild heating and sonication at the highest concentration | solubility (physchem): 1000 µg/mL (≈ 947 µM); Maximal serum concentration (calculated from dose) ([5]; 1 mg/mL in PBS injected, assuming 17 mL blood volume for a 250 g rat): 15 µM; Whole blood haemolysis in vivo ([5]; in vivo, iv): not observed in vivo |
| CC(C)C[C@@H](NC(=O)[C@@H](Cc1ccc2ccccc2c1)NC(=O)[C@@H](Cc1ccccc1)NC(=O)[C@H](N)Cc1ccc2ccccc2c1)C(=O)N[C@@H](CCCCN)C(=O)N[C@@H](CCCCN)C(=O)N[C@@H](CCCCN)C(N)=O [Compound 4, (2-Nal)Ala-Phe-(2-Nal)Ala-Leu-Lys-Lys-Lys] (HELM PEPTIDE1{[N[C@H](Cc1ccc2ccccc2c1)C(=O)[*:2]].[dF].[O=C([C@@H](Cc1ccc2ccccc2c1)N[*:1])[*:2]].[dL].K.K.K.[am]}$$$$V2.0) | > 150 µM | > 150 µM | < 8% | 15.1 µM | 16 µg/mL (≈ 15.1 µM) | > 150 µM | > 150 µM | < 8% | < 8% | > 150 µM | > 150 µM | – | 783 µM | 433 µM | 32 µg/mL (≈ 30.3 µM) | – | < 8% | > 64 µg/mL | freely soluble | Clinical signs of discomfort after injection ([5]; i.v. tail vein, high dose (1 mg/mL), two animals, after initial 30 min recovery): less mobility and reactivity to stimuli; Release of haemoglobin in vivo ([5]; i.v., high dose, 3 h): slightly elevated release of haemoglobin; Adverse effects at 8 h after injection ([5]; i.v., high dose, 8 h): no adverse effects were observed; Bilirubin concentration ([5]; i.v., plasma 24 h): no elevated concentration was observed; AST and ALT concentration ([5]; i.v., plasma 24 h, high dose for 4): slight increase of both AST and ALT |
| CCCCN(CC(=O)N[C@@H](CCCCN)C(=O)N[C@@H](CCCCN)C(=O)N[C@@H](CCCCN)C(N)=O)C(=O)CN(Cc1cccc2ccccc12)C(=O)CN(Cc1ccccc1)C(=O)CNCc1cccc2ccccc12 [Compound 2, (N1-Nal)Gly-(N-Phe)Gly-(N1-Nal)Gly-(N-Bu)Gly-Lys-Lys-Lys] (H-[N(1-naphthylmethyl)Gly][Nphe][N(1-naphthylmethyl)Gly][NBuGly]KKK-NH2) | 11.2 µM | 40 µM | 78.1% | 7.6 µM | 8 µg/mL (≈ 7.57 µM) | 12.8 µM | 32 µM | 100% | 100% | 20.3 µM | 35.1 µM | 355 µM | – | 89 µM | 16 µg/mL (≈ 15.1 µM) | – | < 8% | 32 µg/mL (≈ 30.3 µM) | – | Haemolytic activity (in words) (human erythrocytes [1]): amongst the top five most haemolytic compounds |
| CC(C)C[C@H](NC(=O)[C@H](CCCCN)NC(=O)[C@H](CCCCN)NC(=O)[C@@H](N)CCCCN)C(=O)N[C@@H](Cc1cccc2ccccc12)C(=O)N[C@@H](Cc1ccccc1)C(=O)N[C@@H](Cc1cccc2ccccc12)C(N)=O [Compound 7, Lys-Lys-Lys-Leu-(1-Nal)Ala-Phe(1-Nal)Ala] (HELM PEPTIDE1{K.K.K.L.[O=C([C@H](Cc1cccc2ccccc12)N[*:1])[*:2]].F.[O=C([C@H](Cc1cccc2ccccc12)N[*:1])[*:2]].[am]}$$$$V2.0) | 35.2 µM | 82.6 µM | 83.8% | – | 8 µg/mL (≈ 7.57 µM) | 32.7 µM | 47.2 µM | 102% | 54.3% | 76.9 µM | 143 µM | – | – | – | 16 µg/mL (≈ 15.1 µM) | 118.8 µM | 16% | 16 µg/mL (≈ 15.1 µM) | – | Haemolysis at 80 µM (in words) (human erythrocytes [1]): near total haemolysis; Haemolysis at 80 µM (in words) (canine erythrocytes): near total haemolysis; Haemolysis at 80 µM (in words) (rat erythrocytes): near total haemolysis; Previously reported haemolytic activity against human erythrocytes (in words) (human erythrocytes [9]): high in vitro haemolytic activity |
